Test results reported in patent US10143668B2, “Hydroxy-substituted amino and ammonium derivatives and their medical use” (GRI BIO, INC., priority 2011, dated 2018).
Marks after values point to notes of the source that are not given here.

Assays:
[1] = test system: allergic contact dermatitis response in mice; assay: Allergic contact dermatitis (TDI) model in mice, mouse ear swelling test; type: in vivo; settings: topical, 2 h before challenge
Experimental: The anti-inflammatory and anti-allergic effects of compound 1a were assessed in a mouse model of allergic contact dermatitis, a response driven primarily by T helper type 2 (Th2) cells. […] In this model, an allergic dermatitis response is obtained by sensitizing mice to TDI and subsequently challenging them with antigen by topical administration onto the ears. A quantitative assessment of anti-inflammatory and anti-allergic effects of topically or orally administered test compounds is possible by measuring the resulting ear swelling.
Female BALB/c-mice were obtained from Charles River (Sulzfeld, Germany) at age 8 weeks. All animals were housed in groups of eight per cage at 22° C. with a 12 h light/dark-cycle. Water and a standard diet (Altromin, Lage/Lippe, Germany) were available ad libitum. All animals were acclimatized for one week before experimental procedures were commenced.
Experimental procedures for BALB/c mice housing, TDI sensitization and challenge, and measurement of ear thickness were performed as previously described (Baumer et al., J Pharm Pharmacol. 55:1107-1114 (2003)) with the following modifications. For active sensitization, 100 μL of 5% (w/v) TDI was administered to the shaved and stripped abdominal epidermis on day one, and for the next three consecutive days, 50 μL of 5% (w/v) TDI was applied. The allergic reaction was boosted 21 days later by application of 50 μL of 0.5% (w/v) TDI. For the examination of test compound effects, the left ears were used for the TDI challenge (20 μL of 0.5% in acetone) and ear thickness measured 3 h before and 24 h after challenge.
Administration time: to determine optimal time for administration treatment groups were treated orally by gavage with 100 mg/kg of compound 1a (suspended in 0.5% tylose, 10 mL/kg) 1, 4 or 16 h before topical TDI challenge. One group was treated with 100 mg/kg miltefosine orally, 16 h before challenge (based on available data for optimal administration time for miltefosine) and vehicle treated mice received tylose (10 mL/kg) orally, 4 h before challenge.
Comparison with dexamethasone: one group of mice was treated orally with compound 1a at 100 mg/kg suspended in 0.5% tylose, 4 h before topical TDI challenge. Vehicle treated mice received 0.5% tylose orally 4 h before challenge. As a positive control, dexamethasone was administered in saline solution at 1 mg/kg or 3 mg/kg, 2 h and 30 min before challenge and 1 h after challenge. The dose and dosing scheme for dexamethasone was based on previous experience showing a maximal effect in this model.
[…] The solution was applied, 2 h before topical TDI challenge by administration of 10 μl onto each of the inner and outer surfaces of the left ears. A vehicle group (n=5) was treated with propyleneglycol. As a positive control, diflorasone diacetate was administered at 0.01% (low dose) and 0.05% (high dose) in 20 μl acetone, 2 h before challenge. A basal control group was left untreated.
Mean and standard error of the mean (SEM) were calculated from individual ear edema values. Statistical evaluation was a one-way analysis of variance (ANOVA) (if the test for normal distribution was passed) or the Kruskal-Wallis one-way ANOVA on Ranks (if the normal distribution test failed). Both were followed by a post-hoc test (Dunnett's method or Dunn's test, respectively). A p<0.05 was considered to be significant.

[2] = test system: local lymph node reaction; assay: Local lymph node weight and cell count after TDI challenge; settings: topical, diflorasone 0.1% and 0.5%, 1a 2% or 6%
Experimental: Directly after sacrifice, the ear draining lymph node (Ln. auricularis) was prepared and excised. Organ weight was determined by means of an analytical balance (Kern, Balingen, Germany). Single cell suspensions were prepared by means of a glass potter (VWR, Darmstadt, Germany) and cells were counted with a hemocytometer (Neubauer, VWR, Germany).
One of the most undesirable side-effects of corticosteroid administration is immunosuppression, which leads to the inability to effectively address parasitic infection, wound healing and tumor growth. In the current study, the local lymph node reaction after TDI challenge (lymph node weight and cell number) was determined to assess the response of immune organs.

In the case of CC(=O)OCC(=O)[C@@]1(OC(C)=O)[C@@H](C)C[C@H]2[C@@H]3C[C@H](F)C4=CC(=O)C=C[C@]4(C)[C@@]3(F)[C@@H](O)C[C@@]21C [Diflorasone, diflorasone diacetate, reference compound], the “Inhibition of mouse ear swelling” value ([1]; 0.1%) is reported as 101.1*** %, the “Inhibition of mouse ear swelling” value ([1]; 0.5%) is reported as 110.8*** % and the “local lymph node reaction (lymph node weight and cell number)” value [2] is reported as “highly significant reduction”.
